The values that follow come from a melting point compilation (Tetko et al.; mined from patent text by program, amines drawn as free bases though some values may be those of a salt).

Broadly, the melting point is the temperature, or range, at which the solid turns liquid. Consider `COc1ccc2c(c1)Oc1ccc(Cl)cc1NC2`, for which the melting point lay within 113 to 115 °C.
The value for `CCCc1nc2c(N)nc3ccccc3c2n1OCC` was 198 to 199 °C.
`c1ccc(CCC2CCN(Cc3n[nH]c4ccccc34)CC2)cc1` showed a melting point of 153 to 155 °C.
In turn, `CC(=O)c1cc(NC(=O)NCCCN(CCCNC(=O)Nc2cc(C(C)=O)cc(C(C)=O)c2)CCCNC(=O)Nc2cc(C(C)=O)cc(C(C)=O)c2)cc(C(C)=O)c1` displayed a melting point of 147 to 148 °C.
Then `COc1cc(Cl)cc(C)c1Nc1nc2c(Cl)ccc(C(O)(C(C)C)C(C)C)c2n1C`, with 218 to 219 °C; and `COC(=O)c1cccc(Oc2nn(Cc3ccccc3)c3ccccc23)n1`, with 92 to 94 °C.
Turning to `CCn1cc(C(=O)O)c(=O)c2cc(F)c(N3CCC(CNC4CC4)C3)nc21` (centres undefined), the melting point lay in the range of 271 to 274 °C.
As for `CNc1cnc(N2CCOCC2)cc1-c1ccccc1C`, the melting point lay within 73.5 to 76 °C.
`O=C1NCCc2ccc(OCCCCN3CCN(c4cccc5c4CCC5)CC3)nc2N1` returned a melting point of 70 to 72 °C.
The value for `CC(C)n1c(SC(F)(F)C(F)F)nc(-c2ccc(F)cc2)c1-c1ccc(F)cc1` was 94 to 103 °C; that for `O=C(Cc1ccc2c(c1)OCO2)Nc1cc(C2CC2)n[nH]1` was 174 to 176 °C.
`CCOC(=O)C1=C(CSC(=N)N)NC(C)=C(C(=O)OC)C1c1cccc([N+](=O)[O-])c1` (single isomer, unassigned; (+)) displayed a melting point of 122 to 124 °C.
Then `Cc1ccc(S(=O)(=O)N2CCN(S(=O)(=O)c3ccc(C)cc3)[C@@H](c3ccccc3)C2)cc1`, with 258 °C; and `CC(C)CC1(C(CCSc2cccs2)C(=O)NO)CCN(CCc2ccccc2)C1=O` (centres undefined), with 109 to 110 °C.
`O=C1COc2ccc(-c3cccnc3-c3ccccc3)cc2N1` gave a melting point of 176 to 178 °C.
The value for `CC1(C(=O)O)CCc2c(-c3ccc(Cl)cc3)noc2C1` (centres undefined) was 169 to 170 °C.
Then `CC(=O)NC[C@H]1CN(c2cc(F)c(N3CCC(n4nnc(N5CCN(C#N)CC5)n4)CC3)c(F)c2)C(=O)O1`, with 198 to 200 °C; and `CCN(CC)CCCCC1CCN(CCNC(=O)N2c3ccccc3C(=O)Nc3cccnc32)CC1`, with 167 °C; and `O=C(NCCc1ccccc1)c1ccccc1-c1ccccc1CNS(=O)(=O)c1cccc(C(F)(F)F)c1`, with 145 °C.
`CCOC(=O)c1ccccc1CS(=O)(=O)Cl`: the melting point is 63 to 64 °C.
`Fc1ccccc1-c1noc2c(Cl)c(OCCBr)ccc12` yielded a melting point of 131 to 132 °C.
The value for `CCN(C(=O)c1ccc(CCSn2cnc3ccccc32)cc1)C1CCCCC1` was 114 to 115 °C; that for `CN1C(=O)NC(=O)C1=Cc1cc(Br)c(O)c(Br)c1` was 271 to 277 °C.
In turn, `O=S1(=O)NCN(CCF)c2cc(Cl)c(Br)cc21` yielded a melting point of 159 to 162 °C.
Compound `CCCc1nc2c(N)nc3cc(Oc4ccccc4C(=O)OC)ccc3c2n1CC(C)C` showed a melting point of 167 to 168 °C.
Then `COC[C@H]1CCCN1C(=O)c1cc(-c2ccccc2)c(=O)n2c1-c1sccc1C2`, with 150 to 152 °C; and `Cc1ccc(-c2ccc(S(C)(=O)=O)cc2)n1-c1ccc(-c2ccoc2)cc1`, with 200 to 202 °C.
The value for `COc1c(N2CCC(=NO)CC2)c(F)cc2c(=O)c(C(=O)O)cn(C3CC3)c12` was 258 to 261 °C.
The value for `c1ccc(COc2c(-c3ccccc3)n[nH]c2-c2ccccc2)cc1` was 152 °C; that for `Cc1nn(-c2c(Cl)cc(C(F)(F)F)cc2Cl)nc1CC#N` was 103 to 104 °C.
Compound `O=c1ccn(-c2ccncc2)nc1-c1ccnn1-c1ccccc1` registered a melting point of 202 to 203 °C.
The value for `CCCCOc1c(CN2C(=O)c3ccccc3C2=O)n(CC2CC2)c(=O)c2ccc(Br)cc12` was 156 to 157 °C; that for `COC(=O)c1ccccc1S(=O)COc1ccc(Cl)cc1Cl` (centres undefined) was 64 to 67 °C; that for `CC(C)(C)NC(CO)c1cc(Cl)c(N)c(C(F)(F)F)c1` (centres undefined) was 85 to 90 °C.
The value for `O=C1CC(/C=C/c2ccccc2)Nc2ccccc2N1Cc1ccccc1` (centres undefined) was 186 to 187 °C.
Then `CN(C)C(=O)C1Cc2ccc(N)cc2NC1=O` (centres undefined), with 219 to 223 °C; and `CCCc1c(C(O)C(C)C)c2ccc(C#N)cc2n1Cc1ccccc1Cl` (centres undefined), with 126 to 127 °C.
`COc1cccc2oc(Cn3nc(-c4ccc(OC(C)C)c(F)c4)c4c(N)ncnc43)c(-c3cccc(F)c3)c(=O)c12`: the melting point lay within 145 to 148 °C.
Then `CCOC(=O)C(C)(C)Oc1ccc(C=Cc2ccccc2)cc1`, with 55 to 65 °C; and `Cc1nc(-c2ccc(NC(=O)OCc3ccccc3)cc2)c[nH]c1=O`, with 238 to 240 °C; and `CC(C)C[C@H](NC(=O)OC(C)(C)C)C(=O)N[C@H](C(=O)NN)[C@@H](C)O`, with 146 to 148 °C.
The value for `COc1cc(-c2oc3ccccc3c(=O)c2C(=O)N2CCN(c3ccccn3)CC2)cc(OC)c1OC` was 90 to 95 °C; that for `CCCCC(CC)COc1ccc(N2C(C)=CC(=C=C3C(C#N)C(=C(C#N)C#N)OC3(C)C)C=C2C)cc1` (centres undefined) was 237 °C; that for `O=c1c2ccccc2cc2n1CCS2(=O)=O` was 208 to 211 °C.
The value for `CC(C)(C)NC(=O)N(Cc1ccccc1)CC(O)C(Cc1ccccc1)NC(=O)C(CC(N)=O)NC(=O)NCc1ccccc1` (centres undefined) was 156 to 158 °C; that for `Cn1nc(-c2ncc(Cl)cc2F)cc1Br` was 110 to 111 °C; that for `COc1ccc(CS(=O)(=O)c2cc3ccc(O)cc3oc2=O)cc1[N+](=O)[O-]` was 126 to 128 °C.
Regarding `CCOC(=O)c1cc(=O)c2cc3c(c(CC(O)CO)c2o1)CCCC3` (centres undefined), the melting point was 142 to 144 °C.
`CCC(C)C(CO)NC(=O)CC(O)C(CC(C)C)NC(=O)C(Cc1cscn1)NC(=O)C(Cc1cccc2ccccc12)NC(=O)OCc1ccccc1` (mixture of isomers) yielded a melting point of 167 to 169 °C.
Turning to `CCCCOC1C=CC(=O)N1S(=O)(=O)c1ccccc1` (centres undefined), the melting point was 66 to 67 °C.
For `CSC(=NC(=O)c1ccccc1)N1CC=C(c2cccc(C(F)(F)F)c2)n2ncc(C(N)=O)c21`, the melting point fell in the range of 172 to 175 °C.
Then `CCn1c(=O)c2[nH]c(/C=C/c3cccc([N+](=O)[O-])c3)nc2n(CC)c1=O`, with over 270 °C.
The value for `O=C(c1cccnc1)c1cccs1` was 90 to 91.5 °C.
The value for `O=C(Cc1cccc(OC(F)(F)F)c1)NCc1cccc2c1C(=O)N(C1CCC(=O)NC1=O)C2=O` (centres undefined) was 178 to 180 °C; that for `COc1nc(Cc2ccccc2[N+](=O)[O-])nc(OC)n1` was 91.6 to 92.3 °C; that for `COc1ccc(C2=NN(c3ccc(CC(=O)O)cc3)C(=O)[C@H]3CC=CC[C@@H]23)cc1OC` (relative stereo) was 162 °C.
Turning to `COc1ccccc1N1CCN(CC(O)COc2cc(C)c(OCc3ccccc3)c(C)c2)CC1` (centres undefined), the melting point lay within 93 to 94 °C.
The value for `Cc1nc2cc(C(F)(F)F)c(Cl)c(N)c2n1N(C)C` was 173 to 174 °C; that for `O=C1NCCN(c2ccc(OC(F)(F)C(F)F)cc2)C1=O` was 240 to 242 °C.
